US10046003B2, “Composition for treating neuropathy, a process and a method of treatment thereof” (INDUS BIOTECH PRIVATE LIMITED, priority 2013, dated 2018)

System: PSNL rats
Test: Motor nerve conduction velocity, comparison of Test composition vs alcoholic extract of fenugreek vs Pinitol stand-alone in PSNL rat model
Assay type: in vivo
Method: To compare efficacy of test Composition with Alcoholic Extract of Fenugreek (30 mg/kg p.o) and Pinitol stand-alone (30 mg/kg) in neuropathy, PSNL rat model is used. The sciatic nerve of the rats is exposed and they received injury by a process where a 4-0 silk suture are inserted into the nerve with ⅜ curve, with a reverse-cutting mini needle and is tightly ligated so that the dorsal ⅓-½ of the nerve thickness are trapped in the ligature. They received only vehicle (Distilled water). Male wistar rats weighing 200-220 g average are used for the study. 500 g of fenugreek seeds is extracted by using alcoholic extraction procedure. This extract is obtained in a dry form by using vacuum evaporation technique. […] When compared with sham operated rats there is significant decrease in nerve conduction velocity in PSNL control rats. […] The data was analysed by one way ANOVA followed by Bonferroni's Multiple Comparison Test, wherein: […]

Compound: CO[C@H]1[C@H](O)[C@@H](O)[C@@H](O)[C@H](O)[C@@H]1O [Pinitol stand-alone, 3-O-methyl-1,2,4 cis-3,5,6 transhexahydroxycyclohexanol]
- nerve conduction velocity when compared with PSNL control rats (30 mg/kg p.o., day 28): marginal effect
- Motor Nerve Conduction Velocity (m/s) (PSNL rats, 30 mg/kg p.o. chronic administration, Day 28 (after treatment)): 13.97 m/s
